# From patent publication US12077503B2, “Substituted cyclic amides and their use as herbicides” (FMC CORPORATION, priority 2015, dated 2024)
# Where two headings read alike, the source gives them in different places.
# How the values were obtained:
# Format in all cases: in vivo
# [1] = tested on: barnyardgrass (Echinochloa crus-galli); test: Test A preemergence; conditions: Echinochloa crus-galli, pre-emergence, 240 h; for pest or weed control at 125 g/ha: 125 g ai/ha; for pest or weed control at 500 g/ha: 500 g ai/ha
# Outline: (§1)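 Visual injury scores from 0, no effect, to 100, complete control, were assigned versus untreated controls roughly 10 d after treatment in the greenhouse. Test chemicals, formulated with surfactant in a non-phytotoxic solvent, were applied to planted seeds as a preemergence soil spray or postemergence to one- to two-leaf plants 2 to 10 cm tall, in loam–sand soil.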
# [2] = tested on: Galium (catchweed bedstraw, Galium aparine); test: Test A postemergence; conditions: Galium, post-emergence, 240 h, postemergence; for pest or weed control at 125 g/ha: 125 g ai/ha
# Outline: as §1
# [3] = tested on: Kochia (Kochia scoparia); test: Test A postemergence; conditions: Bassia scoparia, post-emergence, 240 h, postemergence; for pest or weed control at 125 g/ha: 125 g ai/ha
# Outline: as §1
# [4] = tested on: barnyardgrass (Echinochloa crus-galli); test: Test A postemergence; conditions: Echinochloa crus-galli, post-emergence, 240 h; for pest or weed control at 125 g/ha: 125 g ai/ha
# Outline: as §1
# [5] = tested on: blackgrass (Alopecurus myosuroides); test: Test A postemergence; conditions: Alopecurus myosuroides, post-emergence, 240 h; for pest or weed control at 125 g/ha: 125 g ai/ha
# Outline: as §1
# [6] = tested on: corn (Zea mays); test: Test A postemergence; conditions: Zea mays, post-emergence, 240 h; for plant injury at 125 g/ha: visual injury rating after approximately 10 d, read-out: Corn plant response rating (0 to 100 scale, 0 no effect, 100 complete control)
# Outline: as §1
# [7] = tested on: giant foxtail (Setaria faberii); test: Test A postemergence; conditions: Setaria faberi, post-emergence, 240 h, postemergence; for pest or weed control at 125 g/ha: 125 g ai/ha
# Outline: as §1
# [8] = tested on: pigweed (Amaranthus retroflexus); test: Test A postemergence; conditions: Amaranthus retroflexus, post-emergence, 240 h, postemergence; for pest or weed control at 125 g/ha: 125 g ai/ha
# Outline: as §1
# [9] = tested on: ragweed (common ragweed, Ambrosia elatior); test: Test A postemergence; conditions: Ambrosia artemisiifolia, post-emergence, 240 h, postemergence; for pest or weed control at 125 g/ha: 125 g ai/ha
# Outline: as §1
# [10] = tested on: ryegrass, Italian (Italian ryegrass, Lolium multiflorum); test: Test A postemergence; conditions: Lolium multiflorum, post-emergence, 240 h, postemergence; for pest or weed control at 125 g/ha: 125 g ai/ha
# Outline: as §1
# [11] = tested on: wheat (Triticum aestivum); test: Test A postemergence; conditions: Triticum aestivum, post-emergence, 240 h, postemergence; for plant injury at 125 g/ha: 125 g ai/ha
# Outline: as §1
# [12] = tested on: barnyardgrass (Echinochloa crus-galli); test: Test B flooded paddy test; conditions: Echinochloa crus-galli, Flood, 250 g ai/ha, read-out: Barnyardgrass plant response rating
# Outline: (§2)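 Compound goes directly into floodwater once pots are flooded 3 cm above soil, targeting plants at two leaves; the water depth is then held for the test duration. Plants sit 13–15 d in a greenhouse and are rated visually, 100 denoting complete control.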
# [13] = tested on: ducksalad (Heteranthera limosa); test: Test B flooded paddy test; conditions: Heteranthera limosa, Flood, 250 g ai/ha, read-out: Ducksalad plant response rating
# Outline: as §2
# [14] = tested on: rice (Oryra sativa); test: Test B flooded paddy test; conditions: Oryza sativa, Flood, 250 g ai/ha, read-out: Rice plant response rating
# Outline: as §2
# [15] = tested on: sedge, umbrella (small-flower umbrella sedge, Cyperus difformis); test: Test B flooded paddy test; conditions: Cyperus difformis, Flood, 250 g ai/ha, read-out: Sedge, Umbrella plant response rating
# Outline: as §2
# [16] = preemergence, 0 to 100 scale where 0 is no effect and 100 is complete control, read-out: Barnyardgrass plant response rating
# [17] = Preemergence, visual injury vs untreated controls after approximately 10 d, read-out: Barnyardgrass plant response rating (0 to 100 scale where 0 is no effect and 100 is complete control)
# [18] = visual injury rating after approximately 10 d, read-out: Galium plant response rating (0 to 100 scale, 0 no effect, 100 complete control)
# [19] = visual injury rating after approximately 10 d, read-out: Kochia plant response rating (0 to 100 scale, 0 no effect, 100 complete control)
# [20] = postemergence, visual injury rating after approximately 10 d, read-out: Barnyardgrass plant response rating (0 to 100 scale, 0 no effect, 100 complete control)
# [21] = postemergence, visual injury rating after approximately 10 d, read-out: Blackgrass plant response rating (0 to 100 scale, 0 no effect, 100 complete control)
# [22] = visual injury rating after approximately 10 d, read-out: Foxtail, Giant plant response rating (0 to 100 scale, 0 no effect, 100 complete control)
# [23] = visual injury rating after approximately 10 d, read-out: Pigweed plant response rating (0 to 100 scale, 0 no effect, 100 complete control)
# [24] = visual injury rating after approximately 10 d, read-out: Ragweed plant response rating (0 to 100 scale, 0 no effect, 100 complete control)
# [25] = visual injury rating after approximately 10 d, read-out: Ryegrass, Italian plant response rating (0 to 100 scale, 0 no effect, 100 complete control)
# [26] = visual injury rating after approximately 10 d, read-out: Wheat plant response rating (0 to 100 scale, 0 no effect, 100 complete control)
# [27] = scale of 0 to 100 where 0 is no effect and 100 is complete control
# [28] = 0 to 100 scale where 0 is no effect and 100 is complete control
structure (smiles),measurement,setting,value
COc1ccc([C@H]2CN(C)C(=O)[C@@H]2C(=O)Nc2ccccc2SC)cc1OC [Compound 854],pest or weed control at 125 g/ha,[1]; [16],0%
same,pest or weed control at 500 g/ha,[1]; [17],80%
same,pest or weed control at 125 g/ha,[2]; [18],0%
same,pest or weed control at 125 g/ha,[3]; [19],0%
same,pest or weed control at 125 g/ha,[4]; [20],0%
same,pest or weed control at 125 g/ha,[5]; [21],0%
same,plant injury at 125 g/ha,"[6]; 125 g ai/ha, postemergence",0%
same,pest or weed control at 125 g/ha,[7]; [22],50%
same,pest or weed control at 125 g/ha,[8]; [23],0%
same,pest or weed control at 125 g/ha,[9]; [24],0%
same,pest or weed control at 125 g/ha,[10]; [25],0%
same,plant injury at 125 g/ha,[11]; [26],0%
same,pest or weed control at 250 g/ha,[12]; [27],0%
same,pest or weed control at 250 g/ha,[13]; [27],0%
same,pest or weed control at 250 g/ha,[14]; [27],0%
same,pest or weed control at 250 g/ha,[15]; [27],0%
Cc1ccc([C@H]2CNC(=O)[C@@H]2C(=O)Nc2ccccc2F)cc1C [Compound 1033],pest or weed control at 125 g/ha,"[1]; Preemergence, visual injury rating after approximately 10 d, read-out: Barnyardgrass plant response rating (0 to 100 scale, 0 is no effect, 100 is complete control)",90%
same,pest or weed control at 500 g/ha,"[1]; preemergence, visual injury rating about 10 d after treatment, 0 to 100 scale (0 no effect, 100 complete control), read-out: Barnyardgrass plant response rating",90%
same,pest or weed control at 125 g/ha,"[2]; visual injury on 0 to 100 scale (0 no effect, 100 complete control), approx. 10 d, read-out: Galium plant response rating",40%
same,pest or weed control at 500 g/ha,"[2]; 500 g ai/ha, visual injury, 0 to 100 scale (0 no effect, 100 complete control), approx. 10 d, read-out: Plant response rating, Galium",60%
same,pest or weed control at 125 g/ha,"[3]; visual injury on 0 to 100 scale (0 no effect, 100 complete control), approx. 10 d, read-out: Kochia plant response rating",0%
same,pest or weed control at 500 g/ha,"[3]; 500 g ai/ha, visual injury, 0 to 100 scale (0 no effect, 100 complete control), approx. 10 d, read-out: Plant response rating, Kochia",0%
same,pest or weed control at 125 g/ha,"[4]; Postemergence, visual injury after approximately 10 d, 0 to 100 scale where 0 is no effect and 100 is complete control, read-out: Plant response rating, Barnyardgrass",90%
same,pest or weed control at 500 g/ha,"[4]; 500 g ai/ha, postemergence, visual injury, 0 to 100 scale (0 no effect, 100 complete control), approx. 10 d, read-out: Plant response rating, Barnyardgrass",90%
same,pest or weed control at 125 g/ha,"[5]; Postemergence, visual injury after approximately 10 d, 0 to 100 scale where 0 is no effect and 100 is complete control, read-out: Plant response rating, Blackgrass",0%
same,pest or weed control at 500 g/ha,"[5]; 500 g ai/ha, postemergence, visual injury, 0 to 100 scale (0 no effect, 100 complete control), approx. 10 d, read-out: Plant response rating, Blackgrass",40%
same,"Corn plant response rating (crop injury, 0 = no effect, 100 = complete kill) at 125 g/ha","[6]; 125 g ai/ha, Postemergence, visual injury after approximately 10 d, 0 to 100 scale where 0 is no effect and 100 is complete control",0%
same,"Corn plant response rating (crop injury, 0 = no effect, 100 = complete kill) at 500 g/ha","[6]; 500 g ai/ha, postemergence, visual injury, 0 to 100 scale (0 no effect, 100 complete control), approx. 10 d",40%
same,pest or weed control at 125 g/ha,"[7]; visual injury on 0 to 100 scale (0 no effect, 100 complete control), approx. 10 d, read-out: Foxtail, Giant plant response rating",30%
same,pest or weed control at 500 g/ha,"[7]; 500 g ai/ha, visual injury, 0 to 100 scale (0 no effect, 100 complete control), approx. 10 d, read-out: Plant response rating, Foxtail, Giant",80%
same,pest or weed control at 125 g/ha,"[8]; visual injury on 0 to 100 scale (0 no effect, 100 complete control), approx. 10 d, read-out: Pigweed plant response rating",0%
same,pest or weed control at 500 g/ha,"[8]; 500 g ai/ha, visual injury, 0 to 100 scale (0 no effect, 100 complete control), approx. 10 d, read-out: Plant response rating, Pigweed",0%
same,pest or weed control at 125 g/ha,"[9]; visual injury on 0 to 100 scale (0 no effect, 100 complete control), approx. 10 d, read-out: Ragweed plant response rating",0%
same,pest or weed control at 500 g/ha,"[9]; 500 g ai/ha, visual injury, 0 to 100 scale (0 no effect, 100 complete control), approx. 10 d, read-out: Plant response rating, Ragweed",30%
same,pest or weed control at 125 g/ha,"[10]; visual injury on 0 to 100 scale (0 no effect, 100 complete control), approx. 10 d, read-out: Ryegrass, Italian plant response rating",0%
same,pest or weed control at 500 g/ha,"[10]; 500 g ai/ha, visual injury, 0 to 100 scale (0 no effect, 100 complete control), approx. 10 d, read-out: Plant response rating, Ryegrass, Italian",20%
same,plant injury at 125 g/ha,"[11]; visual injury on 0 to 100 scale (0 no effect, 100 complete control), approx. 10 d, read-out: Wheat plant response rating",0%
same,plant injury at 500 g/ha,"[11]; 500 g ai/ha, visual injury, 0 to 100 scale (0 no effect, 100 complete control), approx. 10 d, read-out: Plant response rating, Wheat",0%
same,pest or weed control at 250 g/ha,[12]; [28],50%
same,pest or weed control at 250 g/ha,[13]; [28],100%
same,pest or weed control at 250 g/ha,[14]; [28],0%
same,pest or weed control at 250 g/ha,[15]; [28],0%
O=C1NC[C@H](c2ccc(F)c(OC(F)(F)C(F)(F)Br)c2)[C@H]1C(=O)Nc1cccc(F)c1F (racemic) [Compound 914],pest or weed control at 125 g/ha,[1]; [16],70%
same,pest or weed control at 500 g/ha,[1]; [17],90%
same,pest or weed control at 125 g/ha,[2]; [18],60%
same,pest or weed control at 125 g/ha,[3]; [19],70%
same,pest or weed control at 125 g/ha,[4]; [20],0%
same,pest or weed control at 125 g/ha,[5]; [21],0%
same,plant injury at 125 g/ha,"[6]; 125 g ai/ha, postemergence",0%
same,pest or weed control at 125 g/ha,[7]; [22],70%
same,pest or weed control at 125 g/ha,[8]; [23],80%
same,pest or weed control at 125 g/ha,[9]; [24],20%
same,pest or weed control at 125 g/ha,[10]; [25],0%
same,plant injury at 125 g/ha,[11]; [26],0%
same,pest or weed control at 250 g/ha,[12]; [27],0%
same,pest or weed control at 250 g/ha,[13]; [27],50%
same,pest or weed control at 250 g/ha,[14]; [27],15%
same,pest or weed control at 250 g/ha,[15]; [27],0%
